# Experimental data published in ChEMBL document CHEMBL3751724, “Bioactive lignan derivatives from the stems of Firmiana simplex” (Bioorg Med Chem Lett, 2016).
# What was measured:
# [1] = Antineuroinflammatory activity in mouse BV2 cells assessed as inhibition of LPS-induced nitric oxide production after 24 hrs by Griess assay; assay type: functional, cell-based; settings: BV-2, 24 h
# [2] = Cytotoxicity against LPS-stimulated mouse BV2 cells assessed as cell viability at 20 uM by MTT assay relative to control; assay type: cell-based, BV-2; settings: read-out: Activity
SMILES,IC50 [1] [µM],viability at 20 µM [2] [%]
c1cc2c(cc1[C@@H]1OC[C@@H]3[C@H]1CO[C@H]3c1ccc3c(c1)OCO3)OCO2,26.3,126
COc1cc([C@H]2OC[C@H]3[C@@H]2CO[C@@H]3c2ccc(O)c(OC)c2)ccc1O,31.1,111
Oc1ccc([C@@H]2OC[C@H]3[C@H](c4ccc5c(c4)OCO5)OC[C@@]23O)cc1,35.4,109
COc1cc(C(O)C(CO)Oc2c(OC)cc([C@@H]3OC[C@@H]4[C@H]3CO[C@H]4c3ccc(O)c(OC)c3)cc2OC)ccc1O (stereo partly drawn),19.3,121
COc1cc([C@@H](O)[C@H](CO)Oc2c(OC)cc([C@@H]3OC[C@H]4[C@H](c5ccc(O)c(OC)c5)OC[C@@]34O)cc2OC)ccc1O,> 500,108
COc1cc([C@@H]2Oc3c(OC)cc(/C=C/C=O)cc3[C@H]2CO)cc(OC)c1O,10,120
COc1cc(C(OC)[C@H]2CO[C@H](c3ccc(O)c(OC)c3)[C@H]2CO)ccc1O (stereo partly drawn),33,115
COc1cc([C@@H]2OC[C@@H]3[C@H]2CO[C@H]3c2cc(OC)c(O)c(OC)c2)cc(OC)c1O,27.5,110
COc1cc([C@@H]2OC[C@@]3(O)[C@H](c4ccc5c(c4)OCO5)OC[C@@H]23)ccc1O (relative stereo),> 500,108
COc1cc([C@@H]2OC[C@@H]3[C@H]2CO[C@H]3c2ccc(O)c(OC)c2)ccc1O [(+)-PINORESINOL],25.1,115
COc1cc([C@@H]2OC[C@@H]3[C@H]2CO[C@H]3c2ccc3c(c2)OCO3)ccc1O [PIPERITOL],32.6,113

# Continued, in another order:
IC50 [1] [µM],SMILES,viability at 20 µM [2] [%]
7.07,COc1cc([C@@H]2Oc3c(OC)cc(/C=C/C=O)cc3[C@H]2CO)ccc1O,115
15.3,COc1cc(C(O)C(CO)Oc2c(OC)cc([C@@H]3Oc4c(OC)cc(/C=C/C=O)cc4[C@H]3CO)cc2OC)ccc1O (stereo partly drawn),129
1.05,COc1cc([C@@H](O)[C@@H](CO)Oc2ccc(/C=C/C=O)cc2OC)ccc1O,123
0.929,COc1cc([C@H](O)[C@@H](CO)Oc2ccc(/C=C/C=O)cc2OC)ccc1O,129
32.6,COc1cc([C@@H](O)[C@@H](CO)Oc2ccc(/C=C/CO)cc2OC)ccc1O (relative stereo),117
23.5,COc1cc([C@@H](O)[C@@H](CO)Oc2c(OC)cc(/C=C/CO)cc2OC)ccc1O (relative stereo),120
47.6,COc1cc([C@@H](O)[C@@H](CO)Oc2ccc(C=O)cc2OC)ccc1O (relative stereo),116
9.14,COc1cc(/C=C/CO)ccc1O[C@H](CO)[C@@H](O)c1cc(OC)c(O)c(OC)c1 (relative stereo),123
